The values that follow come from ChEMBL document CHEMBL3243975 (J Med Chem, 1978).

For assay [1], the system named is Mus musculus. The assay can be described thus: Narcotic antagonist activity in sc dosed mouse assessed as inhibition of oxymorphone-induced nacrosis. The assay is classed as functional.
In assay [2] the test system is Rattus norvegicus. The assay can be described thus: Narcotic antagonist activity in sc dosed rat assessed as inhibition of oxymorphone-induced straub tail effect. Format: functional.
Assay [3] is filed under the species Sus scrofa. Description: Agonist activity at pig ileum opioid receptor. The assay is classed as tissue-based.
Assay [4] is filed under the species Sus scrofa. The assay can be described thus: Binding affinity to pig ileum opioid receptor. The assay is classed as tissue-based.
The species named for assay [5] is Rattus norvegicus. The assay can be described thus: Narcotic agonist activity in rat by writhing test. Format: functional.
For assay [6], the species on record is Mus musculus. The assay can be described thus: Narcotic agonist activity in mouse by writhing test. The assay is classed as functional.
For assay [7], the species on record is Rattus norvegicus. The assay can be described thus: Narcotic agonist activity in rat by hot plate test. The assay is classed as functional. (Thermal pain tests record how soon the animal reacts.)

The ED50 is the dose that gives a 50% effect, or the effect in half of the subjects. Take `O=C1CC[C@@]2(O)[C@H]3Cc4ccc(O)c5c4[C@@]2(CCN3CC2CCC2)[C@H]1O5`: the ED50 amounted to 0.57 mg/kg with Mus musculus [1], 0.19 mg/kg in the assay with Rattus norvegicus [2], 0.06 mg/kg in the assay listed under Rattus norvegicus [5] and 0.39 mg/kg in the assay filed under Mus musculus [6]. Also, in the assay listed under Sus scrofa [3], the ID50 worked out at 60 nM. Moreover, the Ke in the assay listed under Sus scrofa [4] worked out at 3 nM.

The compound `O=C1CC[C@@]2(O)[C@H]3Cc4ccc(O)c5c4[C@@]2(CCN3CCc2ccccc2)[C@H]1O5` registered an ED50 in the assay listed under Rattus norvegicus [7] of 0.014 mg/kg.

As for `CN1CC[C@]23c4c5ccc(O)c4O[C@H]2[C@@H](O)C=C[C@H]3[C@H]1C5` [MORPHINE], the ED50 in the assay filed under Rattus norvegicus [5] worked out at 0.26 mg/kg; in the assay listed under Mus musculus [6] it was 0.8 mg/kg.

`CC(C)=CCN1CC[C@]23c4c5ccc(O)c4O[C@H]2C(=O)CC[C@@]3(O)[C@H]1C5` [NALMEXONE]: the ED50 with Mus musculus [1] was 5.6 mg/kg; in the assay on Rattus norvegicus [2] it was 1.4 mg/kg; in the assay filed under Rattus norvegicus [5], 0.74 mg/kg; in the assay filed under Mus musculus [6], 2 mg/kg; in the assay filed under Rattus norvegicus [7], 10.7 mg/kg. Also, in the assay listed under Sus scrofa [3], the ID50 is 400 nM. The Ke in the assay listed under Sus scrofa [4] is 43 nM.

In the case of `C=CCN1CC[C@]23c4c5ccc(O)c4O[C@H]2[C@@H](O)C=C[C@H]3[C@H]1C5` [NALORPHINE], the ED50 was 1.45 mg/kg in the assay with Mus musculus [1], 0.9 mg/kg in the assay with Rattus norvegicus [2] and 1 mg/kg in the assay listed under Rattus norvegicus [5]. The ID50 in the assay filed under Sus scrofa [3] was 24.3 nM.

Consider `C=CCN1CC[C@]23c4c5ccc(O)c4O[C@H]2C(=O)CC[C@@]3(O)[C@H]1C5` [NALOXONE], for which the ED50 in the assay with Mus musculus [1] is 0.14 mg/kg; in the assay with Rattus norvegicus [2], 0.051 mg/kg; in the assay listed under Rattus norvegicus [5], more than 100 mg/kg; in the assay filed under Mus musculus [6], more than 100 mg/kg.

For `O=C1CC[C@@]2(O)[C@H]3Cc4ccc(O)c5c4[C@@]2(CCN3CC2CC2)[C@H]1O5` [NALTREXONE], the ED50 with Mus musculus [1] was 0.047 mg/kg; in the assay with Rattus norvegicus [2] it was 0.023 mg/kg; in the assay filed under Rattus norvegicus [5] it was 0.14 mg/kg; in the assay filed under Mus musculus [6], more than 100 mg/kg. The ID50 in the assay filed under Sus scrofa [3] is more than 850 nM. In the assay listed under Sus scrofa [4], this compound showed a Ke of 0.38 nM.

`CN1CC[C@]23c4c5ccc(O)c4O[C@H]2C(=O)CC[C@@]3(O)[C@H]1C5` [OXYMORPHONE]: in the assay listed under Sus scrofa [3], the ID50 came to 12.1 nM. In addition, the Ke in the assay filed under Sus scrofa [4] was determined as 11.2 nM. The values for the ED50 in the assay filed under Rattus norvegicus [5], in the assay filed under Mus musculus [6] and in the assay filed under Rattus norvegicus [7] were 0.02 mg/kg, 0.046 mg/kg and 0.17 mg/kg, respectively.
